System: MMTV-PyMT mammary gland tumours
Experiment: Intravital imaging of cisplatin-induced apoptosis in breast cancer model
Type: in vivo, mouse
Details: cisplatin 10 mg kg-1 i.p., Apotracker Red 650 ng i.v. 72 h later, two-photon microscopy, MMTV-PyMT;ACTB-ECFP mice
Excerpt: Optical intravital imaging is increasingly used for the preclinical evaluation of anticancer drugs in vivo. Although imaging modalities like computed tomography, positron emission tomography and magnetic resonance imaging can help to visualise whole intact organs in a non‐invasive manner,[26] they lack the spatiotemporal resolution needed to study dynamic interactions between individual tumour and stromal cells. This feature is critical to understand the mechanism of action of anticancer drugs and how they can affect interactions between cancer cells and immune cells in the tumour microenvironment.[27] Intravital imaging heavily relies on the acquisition of fluorescence signals using multiphoton microscopy, which provides cellular resolution with deep tissue penetration (≈500 μm) and minimal photodamage.[28] […] First, we analysed the chemical stability of Apotracker Red for in vivo studies by incubating the probe in mouse serum. […] When primary tumours measured around 0.5–1 cm in diameter, we administered cisplatin intraperitoneally (10 mg kg^−1). […]
were centrifuged (300 g, 5 min, r.t.), washed once with PBS before addition of 0.05% Trypsin, 0.02% ethylenediaminetetraacetic acid (EDTA) in Hank’s balanced salt solution (HBSS) and incubation at 37°C for 5 min. […] Histograms and mean fluorescence intensities of apoptotic cells were measured on a 5L LSR flow cytometer under the following […]

## N.N.[Cl][Pt][Cl] [cisplatin]
  Apotracker Red fluorescence in tumours of treated mice (intravital imaging): strong red fluorescent signals indicating cancer cell death induced by the drug

Reference: paper PMC8991960, “A Bivalent Activatable Fluorescent Probe for Screening and Intravital Imaging of Chemotherapy‐Induced Cancer Cell Death” (Angewandte Chemie (International Ed. in English), 2021)
